Data on 32 compounds can be found in PubChem BioAssay (NCI).

The structures appear in SMILES notation.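 In this assay, cells in 96-well plates receive the compound at five concentrations for 48 hours. Endpoints are linearly interpolated between the surrounding concentrations. GI50 marks 50% less growth. TGI denotes the concentration required for complete inhibition of growth.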

The first test deals with MALME-3M melanoma. As to the kind of experiment: growth of human tumour cells (NCI), 48 h.
`Cc1ccc(Cn2c(C)nc3c2C(=O)c2ccccc2C3=O)cc1`: the TGI turned out to be 34.3 µM.

The compound `CCOC(=O)C(C)(C)Oc1ccc2c(C)c(-c3ccc(Cl)cc3)c(=O)oc2c1` yielded a TGI above 100 µM.

As for `Cc1c(Cl)cccc1N1C(=O)C(Cl)=C(Cl)C1=O`, the TGI is above 100 µM.

In turn, `COc1ccc(NC(=O)/C(N=O)=C(/C)O)cc1` gave a TGI above 100 µM.

As to `COc1cccc(/C=N/[N-]C(=O)c2ccncc2)c1[O-].[Cu+2].[OH3+]`, the GI50 was above 100 µM and the TGI was above 100 µM.

Turning to `O=C1NC(=S)NNC12c1ccccc1-c1ccccc12`, the TGI was above 10 µM.

`CCc1c(OC(C)=O)c2c(NC3OC(COC(C)=O)C(OC(C)=O)C(OC(C)=O)C3OC(C)=O)nc(OC)nc2oc1=O` (configuration not stated) registered a TGI above 100 µM.

Turning to `O=C(NC(=O)c1cn(CCNCCO)c(=O)[nH]c1=O)OCc1ccccc1`, the TGI was above 100 µM.

The compound `O=[N+]([O-])c1ccc(-n2nnc(C3=NCCN3)c2-c2ccc(Cl)cc2)cc1` displayed a TGI above 100 µM.

Compound `CCSc1[nH]c(Nc2nc(-c3ccccc3)n(-c3ccccc3)n2)c(C(N)=O)c1C(N)=O` registered a TGI above 10 µM.

`O=C(c1ccc(Cl)cc1)c1cnc(Nc2ccccc2Cl)s1` came in with a TGI of 46.7 µM.

The compound `CCC1C2C=CC(CC2)N1S(=O)(=O)c1ccc(C)cc1` (configuration not stated) gave a TGI of 73.4 µM.

With `COc1ccc(-c2cc(-c3ccccc3)c(C#N)c(=O)n2C2OC(CO)C(O)C(O)C2O)cc1` (configuration not stated), the TGI was above 100 µM.

Consider `CCOC(=O)C1(c2ccccc2)CCC(=O)CC1`, for which the TGI was above 100 µM.

For `O=C(N/N=C1/C(=O)N(c2ccc(Cl)cc2Cl)C(=O)C(=O)C1c1nc2ccccc2o1)c1ccccc1O` (configuration not stated), the TGI was 78.6 µM.

Turning to `CC(=O)O[C@H]1CCC2[C@@H]3CCC4=C(O)c5nocc5C[C@]4(C)C3CC[C@@]21C` (some centres not stated), the TGI is above 100 µM.

Consider `O=C(O)CSc1n[nH]c(-c2ccccc2)n1`, for which the TGI was above 100 µM.

Turning to `CCCCCCC[CH2][Sn]1([CH2]CCCCCCC)[O]C(=O)c2cccnc2[S]1`, the GI50 was above 100 µM and the TGI is above 100 µM.

Compound `O=C1[C@@H]2C3c4ccccc4C([C@@H]2C(=O)N1c1ccccc1)S3(=O)=O` displayed a TGI above 100 µM.

`COc1ccc(/C(=N\NC(=O)C(N)=O)C(c2ccc(OC)cc2)C2(O)C(=O)Nc3c(Cl)cccc32)cc1` (configuration not stated) yielded a TGI above 100 µM.

`Cc1ccc(S(=O)(=O)N/N=C/c2oc(-c3ccncc3)c(-c3ccncc3)c2[N+](=O)[O-])cc1` gave a TGI above 100 µM.

In the case of `CCc1cccc(C)c1NC(=O)C(=O)Cc1nc2ccccc2o1`, the TGI was above 100 µM.

`O=C(O)[C@H](NS(=O)(=O)c1ccc2ccccc2c1)c1ccccc1` displayed a TGI above 100 µM.

In turn, `CCOc1ccc2c(c1)[n+]([O-])c(-c1ccccc1Cl)c(N)[n+]2[O-]` yielded a TGI above 100 µM.

`O=C1c2ccccc2C2(O)c3cc4ccccc4cc3OC12O` (configuration not stated) showed a TGI above 100 µM.

Another test relates to NCI/ADR-RES ovarian. Nature of the test: growth of human tumour cells (NCI), 48 h.
`O=C1NC(=S)NNC12c1ccccc1-c1ccccc12` yielded a TGI above 10 µM.

The next test deals with OVCAR-8 ovarian. As to the kind of experiment: growth of human tumour cells (NCI), 48 h.
In the case of `c1ccc(SC2CCSc3ccccc3C2Sc2ccccc2)cc1` (configuration not stated), the TGI is above 100 µM.

Consider `COC(=O)[C@]1(C)CCCC2(C)C1CC[C@H]1C=C(C)[C@H]3CCC12C3` (some centres not stated), for which the TGI is above 100 µM.

Compound `O=C(Nc1cc(Cl)ccc1Cl)c1cc2cccc(Cl)c2oc1=O` returned a TGI above 100 µM.

`O=c1n(-c2ccccc2)c(=O)n2n1C1C=CC2C2C(C1)C2(Cl)Cl` (configuration not stated) displayed a TGI above 100 µM.

`COC1C(O)=C2C(=O)O/C(C)=C/C=C/C=C/C=C\CC(c3ccccc3)NC(=O)\C=C/C=C\C=C\C=C\[C@@]2(C)[C@@H]1O` (some centres not stated) came in with a TGI of 0.243 µM.

`Cc1ccc(Cn2c(C)nc3c2C(=O)c2ccccc2C3=O)cc1`: the TGI amounted to 28 µM.

Consider `CCOC(=O)C(C)(C)Oc1ccc2c(C)c(-c3ccc(Cl)cc3)c(=O)oc2c1`, for which the TGI was above 100 µM.

Take `Cc1c(Cl)cccc1N1C(=O)C(Cl)=C(Cl)C1=O`: the TGI was above 100 µM.

The compound `COc1ccc(NC(=O)/C(N=O)=C(/C)O)cc1` came in with a TGI above 100 µM.

`COc1cccc(/C=N/[N-]C(=O)c2ccncc2)c1[O-].[Cu+2].[OH3+]`: the GI50 was 22 µM and the TGI is above 100 µM.

Compound `O=C1NC(=S)NNC12c1ccccc1-c1ccccc12` had a TGI above 10 µM.

Turning to `CCc1c(OC(C)=O)c2c(NC3OC(COC(C)=O)C(OC(C)=O)C(OC(C)=O)C3OC(C)=O)nc(OC)nc2oc1=O` (configuration not stated), the TGI is above 100 µM.

Regarding `O=C(NC(=O)c1cn(CCNCCO)c(=O)[nH]c1=O)OCc1ccccc1`, the TGI was above 100 µM.

`O=[N+]([O-])c1ccc(-n2nnc(C3=NCCN3)c2-c2ccc(Cl)cc2)cc1` returned a TGI above 100 µM.

On to `CCSc1[nH]c(Nc2nc(-c3ccccc3)n(-c3ccccc3)n2)c(C(N)=O)c1C(N)=O`, for which the TGI is above 10 µM.

Regarding `O=C(c1ccc(Cl)cc1)c1cnc(Nc2ccccc2Cl)s1`, the TGI is above 71.1 µM.

In turn, `CCOc1ccc(N2C(=O)/C(=C/c3ccc(N(CCC#N)CCC#N)cc3)N=C2c2cc([N+](=O)[O-])ccc2Cl)cc1` came in with a TGI above 100 µM.

For `COc1ccc(-c2cc(-c3ccccc3)c(C#N)c(=O)n2C2OC(CO)C(O)C(O)C2O)cc1` (configuration not stated), the TGI was above 100 µM.

On to `CCOC(=O)C1(c2ccccc2)CCC(=O)CC1`, for which the TGI is above 100 µM.

`O=C(N/N=C1/C(=O)N(c2ccc(Cl)cc2Cl)C(=O)C(=O)C1c1nc2ccccc2o1)c1ccccc1O` (configuration not stated): the TGI is above 100 µM.

Regarding `CC(=O)O[C@H]1CCC2[C@@H]3CCC4=C(O)c5nocc5C[C@]4(C)C3CC[C@@]21C` (some centres not stated), the TGI was above 100 µM.

Compound `O=C(O)CSc1n[nH]c(-c2ccccc2)n1` registered a TGI above 100 µM.

As to `CCCCCCC[CH2][Sn]1([CH2]CCCCCCC)[O]C(=O)c2cccnc2[S]1`, the GI50 was above 100 µM and the TGI is above 100 µM.

`O=C1[C@@H]2C3c4ccccc4C([C@@H]2C(=O)N1c1ccccc1)S3(=O)=O` had a TGI above 100 µM.

Regarding `COc1ccc(/C(=N\NC(=O)C(N)=O)C(c2ccc(OC)cc2)C2(O)C(=O)Nc3c(Cl)cccc32)cc1` (configuration not stated), the TGI was above 100 µM.

`Cc1ccc(S(=O)(=O)N/N=C/c2oc(-c3ccncc3)c(-c3ccncc3)c2[N+](=O)[O-])cc1` showed a TGI above 100 µM.

In turn, `CCc1cccc(C)c1NC(=O)C(=O)Cc1nc2ccccc2o1` had a TGI above 100 µM.

The compound `CCOc1ccc2c(c1)[n+]([O-])c(-c1ccccc1Cl)c(N)[n+]2[O-]` had a TGI above 100 µM.

As for `O=C1c2ccccc2C2(O)c3cc4ccccc4cc3OC12O` (configuration not stated), the TGI is above 100 µM.

For `CN(C)c1c([O-])c(=[N+](C)C)c1=O`, the TGI is above 100 µM.

In the next test the test system is PC-3 prostate. Nature of the test: growth of human tumour cells (NCI), 48 h.
`COC1C(O)=C2C(=O)O/C(C)=C/C=C/C=C/C=C\CC(c3ccccc3)NC(=O)\C=C/C=C\C=C\C=C\[C@@]2(C)[C@@H]1O` (some centres not stated) yielded a TGI of 0.103 µM.

The compound `CCSc1[nH]c(Nc2nc(-c3ccccc3)n(-c3ccccc3)n2)c(C(N)=O)c1C(N)=O` registered a TGI above 10 µM.
